Assay [1] deals with T1, RhaS (Escherichia coli, UniProt P09377). The assay can be described thus: % Inhibition at 82.5 μM, RhaS. It is filed as cell-based, E. coli.
A further assay addresses Rns (Escherichia coli, UniProt P16114). The assay can be described thus: % Inhibition at 82.5 μM, Rns. Particulars: for inhibition at 82.5 µM: read-out: % Inhibition at 82.5 μM Rns. It is filed as cell-based, Enterotoxigenic E. coli.
Another assay addresses VirF (Shigella flexneri, UniProt P0A2T1). Nature of the assay: % Inhibition at 82.5 μM, VirF. Type of assay: cell-based. Particulars: for inhibition at 82.5 µM: read-out: % Inhibition at 82.5 μM VirF, 82.5 μM.
The target in assay [2] is T1, RhaS. The assay can be described thus: In vivo dose-response, RhaS-activated rhaB-lacZ reporter fusion (β-galactosidase). Particulars: full-length RhaS, rhaB-lacZ. It is filed as cell-based, E. coli. From the text:
For dose-response studies, a rhaB-lacZ reporter strain was designed that allowed IPTG induction of RhaS or RhaS(163-278) expression from pHG165 (and thus rhaB-lacZ expression). The strain was constructed by introducing malP::lacIq into SME3000 via phage P1vir-mediated generalized transduction. First, SME3000 was transduced with Δcrp-3 zhc-511::Tn10 from SME1403, selecting for tetracycline resistance and screening for sorbitol deficiency (indicating Δcrp) using MacConkey sorbitol. SME3000 Acrp-3 zhc-511::Tn10 was transduced with crp^+ malP::lacI^q from SG22166, selecting for growth on minimal sorbitol and screening for maltose deficiency (indicating malP::lacI^q) using MacConkey maltose. Finally, SME3000 malP::lacI^q zhc-511::Tn10 was transduced with recA::cat from SME1048 by selecting for chloramphenicol resistance, to make strain SME3632.
(§1) The top hit identified in the screen was 1-ethyl-4-(nitromethyl)-3-quinolin-2-yl-4H-quinoline, Compound 2. The closely related compound, Compound 1,1-butyl-4-(nitromethyl)-3-quinolin-2-yl-4H-quinoline, was obtained from eMolecules, Inc. (Solana Beach, Calif.; catalog #3761-0013) or Princeton BioMolecular Research (Princeton, N.J.; catalog #OSSL—051168), with the Princeton named used here. […] Lysis/ONPG buffer (50 μL, as in Primary Screen) was added to each well and the plate was immediately placed into a PowerWave XS plate reader (BioTek Instruments, Inc., Winooski, Vt.), set to read the OD420 of each well every 15 min for 4 hr. […] Due to differences in kinetics of lacZ reporter expression, the rhaB-lacZ strains were analyzed at 4 hours and the hts-lacZ strain was analyzed at 1 hr. Percent activity was calculated for each condition as described above, using the single time point with appropriate OD420 levels for each strain. […] IC50 and maximal inhibition values were calculated using the XLfit add-in for Microsoft Excel (ID Business Solutions, Guildford, UK), and graphs were drawn using Prism (GraphPad, La Jolla, Calif.).

Assay [3] deals with LacI-repressed hts-lacZ fusion. Nature of the assay: LacI-repressed hts-lacZ control reporter fusion (β-galactosidase). It is filed as cell-based, E. coli. Particulars: hts-lacZ control (SME3359).
Source text: The control strain for the secondary high-throughput screen and subsequent experiments was SME3359, and carries the LacI-repressed fusion and LacI-expressing pHG165lacI. The fusion consists of lacZ under the control of an artificial promoter (Phts) with an induced expression level similar to that of the induced rhaBAD operon. Phts is regulated by Lad and induced with IPTG. The Phts core promoter elements include a near-consensus −35 sequence and a −10 sequence followed by a lacO1 operator sequence that overlaps the transcription start site with the same spacing as lacO1 at lacZYA. To construct the upstream half of Phts, oligo 2829 was annealed to oligo 2788 and the primers were extended using the Expand High Fidelity PCR System (Roche Applied Science, Indianapolis, Ind.). The downstream half of the Phts promoter was constructed by similarly annealing and extending oligos 2789 and 2790.
as §1, with “2.” for “2. The closely related compound, Compound 1,1-butyl-4-(nitromethyl)-3-quinolin-2-yl-4H-quinoline, was obtained from eMolecules, Inc. (Solana Beach, Calif.; catalog #3761-0013) or Princeton BioMolecular Research (Princeton, N.J.; catalog #OSSL—051168), with the Princeton named used here.”
In vivo dose-response assays were performed using a procedure described previously. […] Bacterial cultures were mixed with varying concentrations of SE-1 (2.2% DMSO, final), induced with 6.5 mM IPTG for 3 h at 37° C., lysed and β-galactosidase activity was measured. […] IC50 values were calculated and graphs were drawn using Prism (GraphPad, La Jolla, Calif.).

The structures appear in SMILES notation.

Chain of VirF (P0A2T1 whole entry, the tested form may be a part): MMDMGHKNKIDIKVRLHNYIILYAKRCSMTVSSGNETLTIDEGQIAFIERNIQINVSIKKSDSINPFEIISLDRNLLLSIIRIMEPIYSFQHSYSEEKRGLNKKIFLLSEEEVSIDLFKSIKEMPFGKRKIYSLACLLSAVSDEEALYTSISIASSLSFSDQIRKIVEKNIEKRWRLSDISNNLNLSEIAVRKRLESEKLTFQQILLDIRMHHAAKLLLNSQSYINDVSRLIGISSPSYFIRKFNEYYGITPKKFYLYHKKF
T1 sequence (P09377 whole entry): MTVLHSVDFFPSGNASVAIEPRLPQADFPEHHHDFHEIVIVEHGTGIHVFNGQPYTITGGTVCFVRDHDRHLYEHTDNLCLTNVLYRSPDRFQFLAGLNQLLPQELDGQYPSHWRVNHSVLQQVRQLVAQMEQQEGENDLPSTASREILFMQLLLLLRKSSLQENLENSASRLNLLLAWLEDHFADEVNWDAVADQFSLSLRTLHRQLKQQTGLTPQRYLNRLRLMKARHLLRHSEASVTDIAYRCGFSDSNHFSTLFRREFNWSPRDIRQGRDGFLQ
Chain of Rns (P16114 whole entry): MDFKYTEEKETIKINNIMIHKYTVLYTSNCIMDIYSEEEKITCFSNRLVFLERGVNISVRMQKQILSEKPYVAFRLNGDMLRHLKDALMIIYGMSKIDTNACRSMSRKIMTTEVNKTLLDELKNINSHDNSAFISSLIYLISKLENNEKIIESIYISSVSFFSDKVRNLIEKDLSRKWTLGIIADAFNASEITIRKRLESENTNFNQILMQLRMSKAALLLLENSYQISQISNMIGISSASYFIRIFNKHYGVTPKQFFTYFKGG

Take `CCCC[n+]1cc(-c2ccc3ccccc3n2)cc2ccccc21` [Compound I02]: the inhibition at 82.5 µM against RhaS [1], at Rns and at VirF was 90% throughout.
Take `CCCCN1C=C(c2cccc(C)n2)C(C#N)c2ccccc21` (centres unmarked) [Compound A03]: the inhibition at 82.5 µM on RhaS [1] was found to be 40%; on Rns, 10%; on VirF, 0%.
The like results for `CN1C=C(c2ccc3ccccc3n2)C(C[N+](=O)[O-])c2ccccc21` (centres unmarked) [Compound E1] were, in that order, 90%, 80% and 100%.
On to `Clc1ccc(C[n+]2cc(-c3ccc4ccccc4n3)cc3ccccc32)cc1.[Br-]` [Compound I01], for which the “% Inhibition at 82.5 μM RhaS” value on RhaS [1] came out at 50%. At Rns (82.5 μM), the “% Inhibition at 82.5 μM Rns” value is 50%. Besides, the “% Inhibition at 82.5 μM VirF” value on VirF (82.5 μM) amounted to 50%.
For `O=[N+]([O-])CC1C(c2ccc3ccccc3n2)=CN(Cc2ccc(Cl)cc2)c2ccccc21` (centres unmarked) [Compound A08], the inhibition at 82.5 µM worked out at 40% against RhaS [1], 30% at Rns and 40% on VirF.
Consider `CCCCN1C=C(c2ccc3ccccc3n2)Cc2ccccc21` [Compound A21], for which the inhibition at 82.5 µM stood at 60% on RhaS [1], 80% at Rns and 70% at VirF.
On the same counts, the results for `C[n+]1sc(Nc2ccccc2)nc1-c1ccccc1` [JS01] are 100%, 100% and 100%.
`CCC[n+]1cc(-c2ccc3ccccc3n2)cc2ccccc21` [Compound I11]: the inhibition at 82.5 µM against RhaS [1] worked out at 80%; at Rns, 90%; at VirF, 100%.
The like results for `CCCCCCCCC[n+]1cc(-c2ccc3ccccc3n2)cc2ccccc21` [Compound I13] were, in that order, 100%, 100% and 100%.
The like results for `CN1C=C(c2ccc3ccccc3n2)C(C#N)c2ccccc21` (centres unmarked) [Compound C4] were, in that order, 70%, 80% and 90%.
On the same counts, the results for `CCCCN1C=C(c2ccc3ccccc3n2)C(C)c2ccccc21` (centres unmarked) [Compound A23] are 0%, 10% and 30%.
For the molecule `CC(C)[n+]1cc(-c2ccc3ccccc3n2)cc2ccccc21` [Compound I10], the inhibition at 82.5 µM against RhaS [1] came out at 80%; on Rns it was 90%; at VirF, 100%.
On the same counts, the results for `C[n+]1ccccc1/C=C/c1ccc(Br)cc1` [JS03] are 20%, 10% and 50%.
On the same counts, the results for `O=[N+]([O-])CC1C(c2ccc3ccccc3n2)=CN(Cc2ccccc2)c2ccccc21` (centres unmarked) [Compound D3] are 60%, 60% and 70%.
For `CCCC[n+]1cc(-c2ccc3ccccc3c2)cc2ccccc21` [Compound I14], the inhibition at 82.5 µM is 90% against RhaS [1], 100% on Rns and 100% at VirF.
With `CCCCN1C=C(c2cccc(C)n2)C(C[N+](=O)[O-])c2ccccc21` (centres unmarked) [Compound A09], the inhibition at 82.5 µM against RhaS [1] is 50%; on Rns, 0%; on VirF, 10%.
On the same counts, the results for `CCOC(=O)CN1C=C(c2ccc3ccccc3n2)C(C[N+](=O)[O-])c2ccccc21` (centres unmarked) [Compound A3] are 0%, 30% and 10%.
On the same counts, the results for `Cc1cccc(C2=CN(Cc3ccc(Cl)cc3)c3ccccc3C2C[N+](=O)[O-])n1` (centres unmarked) [Compound A10] are 30%, 0% and 10%.
As for `Clc1ccc(C[n+]2cc(-c3ccc4ccccc4n3)cc3ccccc32)cc1` [Compound I03], the inhibition at 82.5 µM was determined as 60% against RhaS [1], 50% at Rns and 60% at VirF.
Regarding `CCCCN1C=C(c2ccc3ccccc3n2)C(C[N+](=O)[O-])c2ccccc21` (centres unmarked) [Compound A07], the inhibition at 82.5 µM against RhaS [1], at Rns and at VirF was 90% throughout.
Regarding `CN1C=C(c2ccc3ccccc3n2)C(c2c(-c3ccccc3)[nH]c3ccccc23)c2ccccc21` (centres unmarked) [Compound D2], the results for the inhibition at 82.5 µM on RhaS [1], on Rns and at VirF were 10%, 10% and 40%, respectively.
`CCCCCC[n+]1cc(-c2ccc3ccccc3n2)cc2ccccc21` [Compound I12]: the inhibition at 82.5 µM amounted to 90% at RhaS [1], 100% at Rns and 100% on VirF.
`C=CCCC[n+]1cc(-c2ccc3ccccc3n2)cc2ccccc21` [Compound A25]: the inhibition at 82.5 µM against RhaS [1] worked out at 80%; at Rns, 100%; at VirF, 100%.
Consider `CCN1C=C(c2ccc3ccccc3n2)C(C#N)c2ccccc21` (centres unmarked) [Compound A1], for which the inhibition at 82.5 µM at RhaS [1] was determined as 30%; at Rns, 30%; on VirF, 20%.
`CCOC(=O)C(C(=O)OCC)C1C(c2ccc3ccccc3n2)=CN(C)c2ccccc21` (centres unmarked) [Compound A2]: the inhibition at 82.5 µM at RhaS [1] was 80%; at Rns it was 80%; at VirF it was 100%.
Turning to `CCN1C=C(c2ccc3ccccc3n2)C(C[N+](=O)[O-])c2ccccc21` (centres unmarked) [Compound 2, 1-ethyl-4-(nitromethyl)-3-quinolin-2-yl-4H-quinoline], the inhibition at 82.5 µM at RhaS [1] is 90%; at Rns, 60%; at VirF it was 100%. For the same molecule, at RhaS [2], the “inhibition of the RhaS-activated fusion” value was “particularly robust, dose-dependent inhibition”. Further, the “inhibition of the LacI-repressed fusion” value in assay [3] is recorded as “substantially less inhibition”.
Consider `C[n+]1cc(-c2ccc3ccccc3n2)cc2ccccc21` [Compound A24], for which the inhibition at 82.5 µM amounted to 94% against RhaS [1], 90% at Rns and 100% at VirF.
For the molecule `CCCCN1C=C(c2ccc3ccccc3n2)C(C#N)c2ccccc21` (centres unmarked) [Compound A01], the inhibition at 82.5 µM on RhaS [1] turned out to be 30%; on Rns, 20%; at VirF it was 20%.

The inhibition is the share of the control response that was lost under treatment. Usually % Inhibition stands for the relative decrease from the control value, in per cent.
